# According to patent publication US8569372B2, “Method for preventing or treating a disease, disorder or condition induced by retina ischemia” (priority 2011, dated 2013):
# Key:
# Type in all cases: in vivo, Wistar rats
# [1] = system: ischaemic retina (HIOP induced retinal ischaemia/reperfusion); assay: Flash ERG b-wave after high IOP induced retinal ischaemia/reperfusion, intravitreous pre-treatment; conditions: for ERG b-wave ratio (ischaemic eye vs. fellow normal eye): n=6; for pre-ischaemia b-wave ratio baseline (day 0): day 0 baseline
# Procedure: All investigations involving the use of animals conformed to the Association for Research in Vision and Ophthalmology Statement for the Use of Animals in Ophthalmology and Vision Research and were approved by the Institutional Review Board of Cheng Hsin General Hospital (Taipei, Taiwan). The six-week-old Wistar rats were kept in an animal house where the humidity was 40-60% and the temperature 19-23° C. They were kept on a 12-hour light/dark cycle with 12 to 15 air changes/hour. The animals were provided with food and water ad libitum.
# The rats (200-250 g) were anaesthetized and placed in a stereotaxic frame. The anterior chamber of one eye was cannulated with a 30-gauge needle connected to a 0.9% saline reservoir; this caused a high IOP (HIOP) of 120 mmHg for 60 minutes. Eye fundus whitening and a low ERG response confirmed induction of an ischaemic insult. A sham procedure was carried out on the controls.
# (§1) Drug administration involved the pre-administration (15-minute before 60-minute HIOP induced retinal ischaemia) of SAC (25, 50, 100 μM) or vehicle (saline; control). The ischemic eye of each test rat was treated with or without a single intravitreous injection of 5 μl of the test compound. In addition, SAC (100 μM) was administered to the non-ischaemic eye (normal) to see whether SAC has any adverse effects. In both cases, the paired normal eye was untreated.
# (§2) Flash ERG recordings were performed on all rats before retinal ischaemia (day 0), as well as at 1, 3, 5, and 7 days after ischaemia and treatment with or without the defined chemicals. The animals were dark adapted and anaesthetized to do this. A strobe was placed 2 cm in front of the animal to provide a stimulus of 0.5 Hz. Fifteen consecutive responses were recorded at two-second intervals and at 10 kHz; the responses were amplified and averaged using an amplifier P511/regulated power supply RPS 107/stimulator PS22 (Grass-Telefactor; Astro-Med Inc., West Warwick, R.I., USA). For comparative purposes, the b-wave ratio, namely the b-wave amplitude of the ischaemic/sham-operation eye or the untreated/SAC-treated non-ischaemic (normal) eye as compared with that of the contralateral normal eye, was calculated.
# [2] = system: non-ischaemic (normal) eye; assay: Flash ERG b-wave of the non-ischaemic (normal) eye given SAC (adverse effects); conditions: 100 μM SAC, n=3
# Procedure: as §1, §2
# Thy-1 mRNA = assay: Real-time PCR of retinal mRNA after ischaemia/reperfusion: Thy-1; conditions: 100 μM SAC pre-treatment, 24 hours after I/R; control 3.28±1.09, vehicle 0.29±0.07; n=6
# Procedure: The rats (200-250 g) were anaesthetized and placed in a stereotaxic frame. The anterior chamber of one eye was cannulated with a 30-gauge needle connected to a 0.9% saline reservoir; this caused a high IOP (HIOP) of 120 mmHg for 60 minutes. Eye fundus whitening and a low ERG response confirmed induction of an ischaemic insult. A sham procedure was carried out on the controls. Drug administration involved the pre-administration (15-minute before 60-minute HIOP induced retinal ischaemia) of SAC (25, 50, 100 μM) or vehicle (saline; control). The ischemic eye of each test rat was treated with or without a single intravitreous injection of 5 μl of the test compound. […] The levels of Thy-1, HIF-1 Alpha, VEGF and MMP-9 mRNAs present in the retinas were determined using a real-time PCR technique. […] Relative quantification (a comparative method) was performed using the house keeping gene Beta-actin as the internal standard. This process allows the normalized quantification of the mRNA target (Ct) and takes into account the differences in the amount of total RNA added to each reaction (ΔCt). The relative HIF-1 Alpha/VEGF/MMP-9 expression changes were calculated as fold changes relative to the control with respect to the calibrator (ΔΔCt), which was represented by the control retina. […] The data obtained for each treatment were pooled, and a total percentage change relative to the control was calculated. […]
smiles,measurement,setting,value
"C=CCSC[C@H](N)C(=O)O [SAC, S-allyl L-cysteine]",ERG b-wave ratio (ischaemic eye vs. fellow normal eye),"[1]; 25 μM SAC, day 1 after I/R, vehicle 0.19±0.03",0.47±0.10
same,ERG b-wave ratio (ischaemic eye vs. fellow normal eye),"[1]; 25 μM SAC, day 3 after I/R, vehicle 0.18±0.05",0.44±0.11
same,ERG b-wave ratio (ischaemic eye vs. fellow normal eye),"[1]; 25 μM SAC, day 5 after I/R, vehicle 0.24±0.05",0.54±0.09
same,ERG b-wave ratio (ischaemic eye vs. fellow normal eye),"[1]; 25 μM SAC, day 7 after I/R, vehicle 0.18±0.02",0.55±0.06
same,ERG b-wave ratio (ischaemic eye vs. fellow normal eye),"[1]; 50 μM SAC, day 1 after I/R, vehicle 0.19±0.03",0.56±0.03
same,ERG b-wave ratio (ischaemic eye vs. fellow normal eye),"[1]; 50 μM SAC, day 3 after I/R, vehicle 0.18±0.05",0.60±0.05
same,ERG b-wave ratio (ischaemic eye vs. fellow normal eye),"[1]; 50 μM SAC, day 5 after I/R, vehicle 0.24±0.05",0.65±0.02
same,ERG b-wave ratio (ischaemic eye vs. fellow normal eye),"[1]; 50 μM SAC, day 7 after I/R, vehicle 0.18±0.02",0.61±0.05
same,ERG b-wave amplitude,"[1]; 100 μM SAC intravitreous pre-treatment, 1 day after I/R, sham control 0.35 mV, vehicle 0.08 mV",0.24 mV
same,"ERG b-wave amplitude, % of the control value","[1]; 100 μM SAC pre-treatment, 1 day after I/R, vehicle 22.86%",68.57 % of the control value
same,ERG b-wave ratio (ischaemic eye vs. fellow normal eye),"[1]; 100 μM SAC, day 1 after I/R, vehicle 0.19±0.03",0.64±0.04
same,ERG b-wave ratio (ischaemic eye vs. fellow normal eye),"[1]; 100 μM SAC, day 3 after I/R, vehicle 0.18±0.05",0.79±0.03
same,ERG b-wave ratio (ischaemic eye vs. fellow normal eye),"[1]; 100 μM SAC, day 5 after I/R, vehicle 0.24±0.05",0.84±0.03
same,ERG b-wave ratio (ischaemic eye vs. fellow normal eye),"[1]; 100 μM SAC, day 7 after I/R, vehicle 0.18±0.02",0.84±0.04
same,pre-ischaemia b-wave ratio baseline (day 0),[1]; group pre-treated with 25 μM SAC,1.08±0.07
same,pre-ischaemia b-wave ratio baseline (day 0),[1]; group pre-treated with 50 μM SAC,0.98±0.04
same,pre-ischaemia b-wave ratio baseline (day 0),[1]; group pre-treated with 100 μM SAC,0.92±0.04
same,b-wave amplitude (ratio) of the non-ischemic (normal) eye vs. the fellow normal eye,[2]; day 0,1.11±0.05
same,b-wave amplitude (ratio) of the non-ischemic (normal) eye vs. the fellow normal eye,[2]; day 1,1.05±0.06
same,b-wave amplitude (ratio) of the non-ischemic (normal) eye vs. the fellow normal eye,[2]; day 5,1.06±0.12
same,b-wave amplitude (ratio) of the non-ischemic (normal) eye vs. the fellow normal eye,[2]; day 7,0.91±0.09
same,adverse effect on the b-wave amplitude (ratio) of the non-ischemic (normal) eye,[2]; days 0 to 7,no significant adverse effect
same,Thy-1:β-actin mRNA ratio in the retina,Thy-1 mRNA,1.25±0.30
